Consider 17 compounds from PMC6269003, “Two New Coumarins from Micromelum falcatum with Cytotoxicity and Brine Shrimp Larvae Toxicity” (Molecules, 2012).

The subject of data set [1] is brine shrimp larvae. The experiment in a line: in vivo. To be noted: for LC50 against brine shrimp larvae: 96 well plates assay; for LD50 (brine shrimp): brine shrimp larvae, 96 well plates, 24 h incubation. The protocol: (§1) According to the method described by Wanyoike, brine shrimp eggs (Ocean Star International, Inc., USA) were hatched in a large beaker containing natural sea water (South China Sea) and they were cultured at room temperature for 48 h. With the help of a light source, the larvae grouped together on one side of the vessel and were easily collected for the assay. […] Each test was processed in triplicate with approximate ten larvae. Brine shrimps were counted under a magnifying glass after 24 h of incubation and maintaining the 96 well plates under illumination. The controls were prepared in the same manner except that the test samples were omitted.

Data set [2] in a line: in vivo. Particulars: brine shrimp, in vivo, other: larvae exposed in sea water in 96 well plate, LC50 against brine shrimp larvae; 96 well plates assay. The protocol:
as §1

Data set [3] deals with lung cancer (HvEvc) cell line. The experiment in a line: antiproliferative MTT assay, HvEvc. To be noted: MTT method, 72 h. The class given is cell-based. Here is the method: (§2) Antiproliferative activities of compounds were evaluated by the MTT method using mammary cancer (F10) and lung cancer (HvEvc) cell lines. In MTT assay, the cell suspensions (200 μL) at a density of 1 × 10^5 cells mL^−1 were plated in 96-well microtiter plates and incubated for 24 h at 37 °C in a humidified incubator at 5% CO2. The tested compound solution (2 μL in DMSO) at different concentrations was added to each well and further incubated for 72 h in the same condition. Then, the MTT solution (50 μL) was added to each well and incubated for 4 h. The old medium (150 μL) containing MTT was then gently replaced by DMSO. Absorbance was then determined on a Spectra Max Plus plate reader at 490 nm.

Data set [4] concerns mammary cancer (F10) cell line. The experiment in a line: antiproliferative MTT assay, F10. The class given is cell-based. To be noted: MTT method, 72 h. Here is the method: as §2
Background: Tetrazolium dyes change colour on reduction, which living cells bring about.

Data set [5] deals with P-388 lymphocytic leukemia. Details: method as in PMID 490172. Particulars: mice, 10 mg/Kg; cited from earlier work.
Data set [6] has as its system Lewis lung carcinoma. Also on record: method as in PMID 490172. To be noted: mice, 1.25 mg/Kg; cited from earlier work.
On the set-up of data set [7]: method as in PMID 10378778. To be noted: cited from earlier work.
The test system of data set [8] is P-388 lymphocytic leukemia. Details: method as in doi:10.1021/jo00150a028. To be noted: in vitro; cited from earlier work.

≈ marks a conversion by molar mass, not a printed value.

For `COc1ccc2ccc(=O)oc2c1/C=C/C(CO)COC(=O)CC(C)C` (stereo not shown) [Compound 1, 7-Methoxy-8-(2-hydroxmethyl-1-O-isovaleryl-4-butenyl)coumarin], in data set [1], the “LC50 against brine shrimp larvae” value was less than 10 µM and the “LD50 (brine shrimp)” value came to 6.8 µg/mL. The compound also had an LC50 at 24 h in data set [2] of 6.8 µg/mL (≈ 18.9 µM). The compound also had an IC50 in data set [3] of 35.7 µg/mL (≈ 99.1 µM).

Turning to `C=C(C)C(OC1OC(CO)C(O)C(O)C1O)C(O)c1c(OC)ccc2ccc(=O)oc12` (stereo not drawn) [Compound 2, 7-Methoxy-8-(1-hydroxy-2-O-β-glucopyranosyl-3-methyl-4-butene-1-yl)coumarin], the “LD50 (brine shrimp)” value in data set [1] was found to be 29.1 µg/mL. The compound further yielded an LC50 at 24 h in data set [2] of less than 500 µg/mL. The IC50 was determined as 23.6 µg/mL (≈ 53.8 µM) in data set [4] and 68.5 µg/mL (≈ 156 µM) in data set [3].

`COc1cc2oc(=O)ccc2cc1C=O` [Compound 4, 6-formyl-7-methoxycoumarin]: the “LD50 (brine shrimp)” value in data set [1] is more than 500 µg/mL.

Turning to `COc1ccc2ccc(=O)oc2c1C(C=O)=C(C)C` [Compound 5, murralongin], the “LD50 (brine shrimp)” value in data set [1] is more than 500 µg/mL.

For the compound `COc1ccc2ccc(=O)oc2c1/C=C/C(C)(C)O` [Compound 6, murraol], in data set [1], the “LC50 against brine shrimp larvae” value is less than 500 µM and the “LD50 (brine shrimp)” value turned out to be 199.3 µg/mL. Further, the “IC50 (HvEvc)” value in data set [3] amounted to 172.5 µg/mL (≈ 663 µM).

As to `C=C(C)C(CO)c1c(OC)ccc2ccc(=O)oc12` (stereo not shown) [Compound 10, isomurralonginol], in data set [1], the “LC50 against brine shrimp larvae” value was less than 500 µM and the “LD50 (brine shrimp)” value turned out to be 50.6 µg/mL. Besides, in data set [3], the “IC50 (HvEvc)” value is 72.6 µg/mL (≈ 279 µM).

On to `C=C(C)C(O)C(OC)c1c(OC)ccc2ccc(=O)oc12` (stereo not shown) [Compound 11, murracarpin], for which, in data set [1], the “LC50 against brine shrimp larvae” value was less than 500 µM and the “LD50 (brine shrimp)” value is 158.5 µg/mL. The “IC50 (HvEvc)” value in data set [3] was determined as 124.3 µg/mL (≈ 428 µM).

As for `COc1cc2oc(=O)ccc2cc1[C@@H]1OC(=O)[C@@]2(C)O[C@@H]12` [micromelin], the T/C in data set [5] is given as 149%; in data set [6] it was 228%.

For `C=C(C)[C@H](O)[C@@H](O)c1c(OC)ccc2ccc(=O)oc12` [minumicrolin], the anti-tumor promoting activity entry in data set [7] is listed as “valuable anti-tumor promoting agents”.

For the compound `C=C(C)[C@@H](O)[C@@H](O)c1c(OC)ccc2ccc(=O)oc12` [murrangatin], in data set [7], the anti-tumor promoting activity result is on record as “valuable anti-tumor promoting agents”.

Turning to (E)-osthenone [Compound 9], in data set [1], the “LD50 (brine shrimp)” value is more than 500 µg/mL.

For the compound arscotin [Compound 7], in data set [1], the “LC50 against brine shrimp larvae” value was less than 500 µM and the “LD50 (brine shrimp)” value came out at 118.5 µg/mL.

As to methoxymicrominutinin [Compound 13], in data set [1], the “LD50 (brine shrimp)” value is more than 500 µg/mL.

microfalcatin isovalerate [Compound 14]: the “IC50 (F10)” value in data set [4] worked out at 112.0 µg/mL.

Consider microminutin [Compound 3], for which, in data set [1], the “LC50 against brine shrimp larvae” value was less than 500 µM and the “LD50 (brine shrimp)” value was determined as 107.3 µg/mL. Further, in data set [4], the “IC50 (F10)” value came out at 82.9 µg/mL. Also, the ED50 in data set [8] was 3.7 µg/mL.

As to microminutinin [Compound 12], the “LD50 (brine shrimp)” value in data set [1] was more than 500 µg/mL.

Turning to murralonginol [Compound 8], the “LD50 (brine shrimp)” value in data set [1] was more than 500 µg/mL.

A word on the LC50: it is the concentration lethal to half of the exposed cells or organisms. What is called IC50 is the point on the concentration scale where inhibition reaches its midpoint. A low value points to higher potency. The term T/C denotes the result in the treated group divided by that in the control group, in per cent.
